Source: paper PMC5578959, “Selective LRRK2 kinase inhibition reduces phosphorylation of endogenous Rab10 and Rab12 in human peripheral mononuclear blood cells” (Scientific Reports, 2017)

Tests used:
Experiment in all cases: KiNativ profiling in human PBMCs
Type in all cases: binding
JNK1,JNK2,JNK3 = conditions: Lys2
Description: (§1) Compounds were shipped to ActivX Technologies (San Diego, US) where LRRK2 target engagement and broad kinase profiling was performed using KiNativ™ procedures. Live cell treatment of human peripheral blood mononuclear cells (PBMCs) at two compound concentrations (1 µM and 0.1 µM) were used to evaluate and compare in vitro target engagement and kinase selectivity, respectively (see Supplementary File 1).

STLK6 = tested on: T1, STLK6
T1 construct: purchased ActivX Technologies (KiNativ)
Description: as §1

MST1,MST2 = conditions: Lys2
Description: as §1

MAP3K15,MAP3K5,MAP3K6 = conditions: Lys1
Description: as §1

ILK = tested on: T2, ILK
T2 construct: purchased ActivX Technologies (KiNativ)
Description: as §1

FER = tested on: T3, FER
T3 construct: purchased ActivX Technologies (KiNativ)
Description: as §1

PKCa,PKCb = conditions: Lys2
Description: as §1

MAP2K4 = tested on: T4, MAP2K4
T4 construct: purchased ActivX Technologies (KiNativ)
Description: as §1

MAP2K5 = tested on: T5, MAP2K5
T5 construct: purchased ActivX Technologies (KiNativ)
Description: as §1

SMG1 = tested on: T6, SMG1; conditions: ATP
T6 construct: purchased ActivX Technologies (KiNativ)
Description: as §1

TLK1 = tested on: T7, TLK1
T7 construct: purchased ActivX Technologies (KiNativ)
Description: as §1

ZAK = tested on: T8, ZAK; conditions: Lys1
T8 construct: purchased ActivX Technologies (KiNativ)
Description: as §1

MST1 = tested on: T9, MST1; conditions: Lys1
T9 construct: purchased ActivX Technologies (KiNativ)
Description: as §1

PIK3CB = tested on: T10, PIK3CB; conditions: ATP
T10 construct: purchased ActivX Technologies (KiNativ)
Description: as §1

PAN3 = tested on: T11, PAN3; conditions: ATP
T11 construct: purchased ActivX Technologies (KiNativ)
Description: as §1

IKKe,TBK1 = conditions: Lys2
Description: as §1

KSR1,KSR2 = conditions: Activation Loop
Description: as §1

KSR1 = tested on: T12, KSR1; conditions: Activation Loop
T12 construct: purchased ActivX Technologies (KiNativ)
Description: as §1

CaMK1d = tested on: T13, CaMK1d
T13 construct: purchased ActivX Technologies (KiNativ)
Description: as §1

FGR = tested on: T14, FGR; conditions: Activation Loop
T14 construct: purchased ActivX Technologies (KiNativ)
Description: as §1

TBK1 = tested on: T15, TBK1; conditions: Lys1
T15 construct: purchased ActivX Technologies (KiNativ)
Description: as §1

PIP4K2C = tested on: T16, PIP4K2C; conditions: ATP
T16 construct: purchased ActivX Technologies (KiNativ)
Description: as §1

MSK2 domain1 = tested on: T17, MSK2 domain1; conditions: Lys2
T17 construct: MSK2 domain1; purchased ActivX Technologies (KiNativ)
Description: as §1

BTK = tested on: T18, BTK
T18 construct: purchased ActivX Technologies (KiNativ)
Description: as §1

PKR = tested on: T19, PKR
T19 construct: purchased ActivX Technologies (KiNativ)
Description: as §1

MSK1 domain1 = tested on: T20, MSK1 domain1; conditions: Lys2
T20 construct: MSK1 domain1; purchased ActivX Technologies (KiNativ)
Description: as §1

PYK2 = tested on: T21, PYK2
T21 construct: purchased ActivX Technologies (KiNativ)
Description: as §1

smMLCK = tested on: T22, smMLCK
T22 construct: purchased ActivX Technologies (KiNativ)
Description: as §1

MAP3K6 = tested on: T23, MAP3K6; conditions: Lys2
T23 construct: purchased ActivX Technologies (KiNativ)
Description: as §1

NEK6,NEK7 = conditions: Lys2
Description: as §1

CaMK1a = tested on: T24, CaMK1a
T24 construct: purchased ActivX Technologies (KiNativ)
Description: as §1

RSK2 domain2 = tested on: T25, RSK2 domain2; conditions: Lys2
T25 construct: RSK2 domain2; purchased ActivX Technologies (KiNativ)
Description: as §1

BARK1 = tested on: T26, BARK1; conditions: Lys2
T26 construct: purchased ActivX Technologies (KiNativ)
Description: as §1

RSK3 domain1 = tested on: T27, RSK3 domain1; conditions: Lys2
T27 construct: RSK3 domain1; purchased ActivX Technologies (KiNativ)
Description: as §1

TAO2 = tested on: T28, TAO2; conditions: Lys2
T28 construct: purchased ActivX Technologies (KiNativ)
Description: as §1

Cn1cc(-c2c[nH]c3ncnc(N4CCOCC4)c23)cc1C#N [PFE-360]
% Inhibition (JNK1,JNK2,JNK3; 0.1µM): 2.1%
% Inhibition (JNK1,JNK2,JNK3; 1µM): -12%
% Inhibition (STLK6; 0.1µM, Lys1): -3.3%
% Inhibition (STLK6; 0.1µM, Lys2): 11.8%
% Inhibition (STLK6; 1µM, Lys1): -20.6%
% Inhibition (STLK6; 1µM, Lys2): -10.2%
% Inhibition (MST1,MST2; 0.1µM): 15%
% Inhibition (MST1,MST2; 1µM): 39.1%
% Inhibition (MAP3K15,MAP3K5,MAP3K6; 0.1µM): 26.2%
% Inhibition (MAP3K15,MAP3K5,MAP3K6; 1µM): 53.5%
% Inhibition (ILK; 0.1µM, Lys1): 4.8%
% Inhibition (ILK; 0.1µM, Protein Kinase Domain): -4%
% Inhibition (ILK; 1µM, Lys1): 6.2%
% Inhibition (ILK; 1µM, Protein Kinase Domain): 26%
% Inhibition (FER; 0.1µM, Activation Loop): 10%
% Inhibition (FER; 0.1µM, Lys1): -2%
% Inhibition (FER; 1µM, Activation Loop): 4.9%
% Inhibition (FER; 1µM, Lys1): -3.4%
% Inhibition (PKCa,PKCb; 0.1µM): -32.8%
% Inhibition (PKCa,PKCb; 1µM): -10.6%
% Inhibition (MAP2K4; 0.1µM, Lys1): -7.3%
% Inhibition (MAP2K4; 0.1µM, Lys2): 7.4%
% Inhibition (MAP2K4; 1µM, Lys1): 11%
% Inhibition (MAP2K4; 1µM, Lys2): -3.8%
% Inhibition (MAP2K5; 0.1µM, Lys1): 4.7%
% Inhibition (MAP2K5; 0.1µM, Lys2): -4.6%
% Inhibition (MAP2K5; 1µM, Lys1): -10.3%
% Inhibition (MAP2K5; 1µM, Lys2): 31.9%
% Inhibition (SMG1; 0.1µM, peptide DTVTIHSVGGTITILPTKTKPK): -4.6%
% Inhibition (SMG1; 0.1µM, peptide SYPYLFKGLEDLHLDER): 7%
% Inhibition (SMG1; 1µM, peptide DTVTIHSVGGTITILPTKTKPK): -3%
% Inhibition (SMG1; 1µM, peptide SYPYLFKGLEDLHLDER): -11.6%
% Inhibition (TLK1; 0.1µM, Lys1): -0.5%
% Inhibition (TLK1; 0.1µM, Lys2): 0%
% Inhibition (TLK1; 1µM, Lys1): 3.9%
% Inhibition (TLK1; 1µM, Lys2): -13.2%
% Inhibition (ZAK; 0.1µM): -12.2%
% Inhibition (ZAK; 1µM): -10.2%
% Inhibition (MST1; 0.1µM): 16.8%
% Inhibition (MST1; 1µM): 34.1%
% Inhibition (PIK3CB; 0.1µM): -27.2%
% Inhibition (PIK3CB; 1µM): 12.3%
% Inhibition (PAN3; 0.1µM): -22.1%
% Inhibition (PAN3; 1µM): 10.4%
% Inhibition (IKKe,TBK1; 0.1µM): -25.5%
% Inhibition (IKKe,TBK1; 1µM): 16%
% Inhibition (KSR1,KSR2; 0.1µM): 19.7%
% Inhibition (KSR1,KSR2; 1µM): 10.8%
% Inhibition (KSR1; 0.1µM): 6.8%
% Inhibition (KSR1; 1µM): 8.2%
% Inhibition (CaMK1d; 0.1µM, Lys1): 8%
% Inhibition (CaMK1d; 0.1µM, Lys2): 6.4%
% Inhibition (CaMK1d; 1µM, Lys1): -1.5%
% Inhibition (CaMK1d; 1µM, Lys2): 20.2%
% Inhibition (FGR; 0.1µM): -2.5%
% Inhibition (FGR; 1µM): -6.6%
% Inhibition (TBK1; 0.1µM): -29%
% Inhibition (TBK1; 1µM): 2.1%
% Inhibition (PIP4K2C; 0.1µM, peptide TLVIKEVSSEDIADMHSNLSNYHQYIVK): -22.2%
% Inhibition (PIP4K2C; 0.1µM, peptide VKELPTLKDMDFLNK): -16.7%
% Inhibition (PIP4K2C; 1µM, peptide TLVIKEVSSEDIADMHSNLSNYHQYIVK): -14.4%
% Inhibition (PIP4K2C; 1µM, peptide VKELPTLKDMDFLNK): -2.6%
% Inhibition (MSK2 domain1; 0.1µM): 2.2%
% Inhibition (MSK2 domain1; 1µM): 1.9%
% Inhibition (BTK; 0.1µM, Activation Loop): -5.6%
% Inhibition (BTK; 0.1µM, Lys1): -12.3%
% Inhibition (BTK; 1µM, Activation Loop): -15.5%
% Inhibition (BTK; 1µM, Lys1): 2.1%
% Inhibition (PKR; 0.1µM, Activation Loop): -1.7%
% Inhibition (PKR; 0.1µM, Lys2): -0.1%
% Inhibition (PKR; 1µM, Activation Loop): -6.6%
% Inhibition (PKR; 1µM, Lys2): -9.3%
% Inhibition (MSK1 domain1; 0.1µM): -7.8%
% Inhibition (MSK1 domain1; 1µM): -5.1%
% Inhibition (PYK2; 0.1µM, Activation Loop): 8.4%
% Inhibition (PYK2; 0.1µM, Lys1): 29.3%
% Inhibition (PYK2; 1µM, Activation Loop): 7.1%
% Inhibition (PYK2; 1µM, Lys1): -2.2%
% Inhibition (smMLCK; 0.1µM, Lys1): 1.5%
% Inhibition (smMLCK; 0.1µM, Lys2): -14.6%
% Inhibition (smMLCK; 1µM, Lys1): -16.9%
% Inhibition (smMLCK; 1µM, Lys2): 3.3%
% Inhibition (MAP3K6; 0.1µM): -5.9%
% Inhibition (MAP3K6; 1µM): -0.1%
% Inhibition (NEK6,NEK7; 0.1µM): -2.4%
% Inhibition (NEK6,NEK7; 1µM): -18.6%
% Inhibition (CaMK1a; 0.1µM, Lys1): -2.5%
% Inhibition (CaMK1a; 0.1µM, Lys2): -12.3%
% Inhibition (CaMK1a; 1µM, Lys1): 3.5%
% Inhibition (CaMK1a; 1µM, Lys2): -25%
% Inhibition (RSK2 domain2; 0.1µM): -7.4%
% Inhibition (RSK2 domain2; 1µM): -13.8%
% Inhibition (BARK1; 0.1µM): -4.8%
% Inhibition (BARK1; 1µM): -29.7%
% Inhibition (RSK3 domain1; 0.1µM): 5.5%
% Inhibition (RSK3 domain1; 1µM): 8.1%
% Inhibition (TAO2; 0.1µM): 1.1%
% Inhibition (TAO2; 1µM): -26.1%
